The values below come from patent publication US6716827B1, “Complexes for immobilizing isothiocyanate natural precursors in cyclodextrins, preparation and use” (Commissariat a l'Energie Atomique, priority 1998, dated 2004).

Molecules are shown by their SMILES.

The nature of series [1]: Solubility in water of benzyl isothiocyanate. The class given is physicochemical. The note with it: free compound, oily liquid.
A short description of series [2]: Solubility in aqueous solution of benzyl isothiocyanate formed by myrosinase in the α-cyclodextrin complex, followed by NMR. It counts as physicochemical. The note with it: complexed in α-cyclodextrin; formed by action of myrosinase on the glucosinolate complex; 50 mM deuterated phosphate buffer pH 6, 25° C. How it is done:
In this example, the inclusion complex formed in example 1 is converted into an inclusion complex of benzyl isothiocyanate in the cyclodextrin.
For this purpose, myrosinase is added to the solution of the complex prepared in example 1, then hydrolysis of the glucosinolate is followed under nuclear magnetic resonance.
The results are given in FIGS. 4, 5 and 6 which illustrate the NMR spectra obtained at 25° C. and 500 MHz, before the addition of myrosinase (FIG. 4), 1 hour after the addition of myrosinase (FIG. 5), and 17 hours after the addition of myrosinase (FIG. 6).

On to `S=C=NCc1ccccc1` [benzyl isothiocyanate], for which the solubility in water result in series [1] is recorded as “insoluble in water”. The “solubility in an aqueous solution” value in series [2] is given as “soluble”.
